Measurements reported in PubChem BioAssay (NCI).
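Briefly, cells in 96-well plates were exposed to five compound concentrations for 48 h, and endpoints were estimated by linear interpolation. GI50 marks 50% less growth. Definition used: TGI = concentration required for complete inhibition of growth.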

Tests used:
Test in all cases: growth of human tumour cells (NCI), 48 h
IGROV1 ovarian = tested on: IGROV1 ovarian
MDA-MB-231 breast = tested on: MDA-MB-231 breast
SNB-19 CNS = tested on: SNB-19 CNS
EKVX NSCLC = tested on: EKVX NSCLC
U251 CNS = tested on: U251 CNS
ACHN renal = tested on: ACHN renal
A549 NSCLC = tested on: A549 NSCLC
UO-31 renal = tested on: UO-31 renal
SK-OV-3 ovarian = tested on: SK-OV-3 ovarian
MALME-3M melanoma = tested on: MALME-3M melanoma
NCI/ADR-RES ovarian = tested on: NCI/ADR-RES ovarian
HCC-2998 colon = tested on: HCC-2998 colon
SF-539 CNS = tested on: SF-539 CNS
HT29 colon = tested on: HT29 colon
SW-620 colon = tested on: SW-620 colon
HCT-15 colon = tested on: HCT-15 colon
RXF 393 renal = tested on: RXF 393 renal
MDA-MB-435 = tested on: MDA-MB-435
SNB-75 CNS = tested on: SNB-75 CNS
MCF7 breast = tested on: MCF7 breast
NCI-H460 lung = tested on: NCI-H460 lung
SF-268 CNS = tested on: SF-268 CNS
SK-MEL-28 melanoma = tested on: SK-MEL-28 melanoma
HOP-92 NSCLC = tested on: HOP-92 NSCLC
OVCAR-8 ovarian = tested on: OVCAR-8 ovarian
OVCAR-4 ovarian = tested on: OVCAR-4 ovarian
K-562 leukemia = tested on: K-562 leukemia
COLO 205 colon = tested on: COLO 205 colon
NCI-H226 lung = tested on: NCI-H226 lung
SN12C renal = tested on: SN12C renal
OVCAR-5 ovarian = tested on: OVCAR-5 ovarian
786-0 renal = tested on: 786-0 renal
HS 578T breast = tested on: HS 578T breast
T-47D breast = tested on: T-47D breast
MOLT-4 leukemia = tested on: MOLT-4 leukemia
CAKI-1 renal = tested on: CAKI-1 renal
M14 melanoma = tested on: M14 melanoma
HCT-116 colon = tested on: HCT-116 colon
KM12 colon = tested on: KM12 colon
UACC-62 melanoma = tested on: UACC-62 melanoma
OVCAR-3 ovarian = tested on: OVCAR-3 ovarian
SK-MEL-5 melanoma = tested on: SK-MEL-5 melanoma
DU-145 prostate = tested on: DU-145 prostate
CCRF-CEM leukemia = tested on: CCRF-CEM leukemia
RPMI-8226 leukemia = tested on: RPMI-8226 leukemia
HOP-62 NSCLC = tested on: HOP-62 NSCLC
HL-60(TB) leukemia = tested on: HL-60(TB) leukemia
SK-MEL-2 melanoma = tested on: SK-MEL-2 melanoma
TK-10 renal = tested on: TK-10 renal
PC-3 prostate = tested on: PC-3 prostate
BT-549 breast = tested on: BT-549 breast
NCI-H522 lung = tested on: NCI-H522 lung
NCI-H23 lung = tested on: NCI-H23 lung
A498 renal = tested on: A498 renal
SR leukemia = tested on: SR leukemia
LOX IMVI melanoma = tested on: LOX IMVI melanoma

Q: `COc1ccc(-c2cc(-c3ccc(Cl)cc3)c(C#N)c(=O)n2CCCCCC(=O)Nc2ccccc2N)cc1` was tested. Which GI50 (IGROV1 ovarian) did it give?
A: 4.22 µM

Q: What about the TGI (IGROV1 ovarian) of the same molecule?
A: > 100 µM

Q: What about the GI50 (MDA-MB-231 breast) of the same molecule?
A: 7.12 µM

Q: What about the TGI (MDA-MB-231 breast) of the same molecule?
A: > 100 µM

Q: What about the GI50 (SNB-19 CNS) of the same molecule?
A: 23.1 µM

Q: And the TGI (SNB-19 CNS)?
A: > 100 µM

Q: What about the GI50 (EKVX NSCLC) of the same molecule?
A: 3.44 µM

Q: What about the TGI (EKVX NSCLC) of the same molecule?
A: 61.1 µM

Q: What about the GI50 (U251 CNS) of the same molecule?
A: 6.19 µM

Q: What about the TGI (U251 CNS) of the same molecule?
A: > 100 µM

Q: What about the GI50 (ACHN renal) of the same molecule?
A: 4.18 µM

Q: And the TGI (ACHN renal)?
A: > 100 µM

Q: And the GI50 (A549 NSCLC)?
A: 4.06 µM

Q: And the TGI (A549 NSCLC)?
A: > 100 µM

Q: What about the GI50 (UO-31 renal) of the same molecule?
A: 3.96 µM

Q: And the TGI (UO-31 renal)?
A: > 100 µM

Q: What about the GI50 (SK-OV-3 ovarian) of the same molecule?
A: 5.36 µM

Q: And the TGI (SK-OV-3 ovarian)?
A: 38.4 µM

Q: What about the GI50 (MALME-3M melanoma) of the same molecule?
A: 3.19 µM

Q: And the TGI (MALME-3M melanoma)?
A: 20.3 µM

Q: What about the GI50 (NCI/ADR-RES ovarian) of the same molecule?
A: 3.99 µM

Q: And the TGI (NCI/ADR-RES ovarian)?
A: > 100 µM

Q: What about the GI50 (HCC-2998 colon) of the same molecule?
A: 4.02 µM

Q: And the TGI (HCC-2998 colon)?
A: 36.5 µM

Q: What about the GI50 (SF-539 CNS) of the same molecule?
A: 9.29 µM

Q: What about the TGI (SF-539 CNS) of the same molecule?
A: > 100 µM

Q: And the GI50 (HT29 colon)?
A: 3.56 µM

Q: What about the TGI (HT29 colon) of the same molecule?
A: > 100 µM

Q: What about the GI50 (SW-620 colon) of the same molecule?
A: 3.87 µM

Q: And the TGI (SW-620 colon)?
A: > 100 µM

Q: And the GI50 (HCT-15 colon)?
A: 2.78 µM

Q: What about the TGI (HCT-15 colon) of the same molecule?
A: 10.4 µM

Q: What about the GI50 (RXF 393 renal) of the same molecule?
A: 1.77 µM

Q: And the TGI (RXF 393 renal)?
A: 5.68 µM

Q: And the GI50 (MDA-MB-435)?
A: 3.69 µM

Q: What about the TGI (MDA-MB-435) of the same molecule?
A: 18.7 µM

Q: What about the GI50 (SNB-75 CNS) of the same molecule?
A: 1.4 µM

Q: And the TGI (SNB-75 CNS)?
A: 5.83 µM

Q: What about the GI50 (MCF7 breast) of the same molecule?
A: 3.25 µM

Q: And the TGI (MCF7 breast)?
A: > 100 µM

Q: What about the GI50 (NCI-H460 lung) of the same molecule?
A: 3.42 µM

Q: And the TGI (NCI-H460 lung)?
A: 27.2 µM

Q: And the GI50 (SF-268 CNS)?
A: 14.9 µM

Q: And the TGI (SF-268 CNS)?
A: > 100 µM

Q: And the GI50 (SK-MEL-28 melanoma)?
A: 3.88 µM

Q: And the TGI (SK-MEL-28 melanoma)?
A: 97.8 µM

Q: And the GI50 (HOP-92 NSCLC)?
A: 1.96 µM

Q: What about the TGI (HOP-92 NSCLC) of the same molecule?
A: 9.93 µM

Q: What about the GI50 (OVCAR-8 ovarian) of the same molecule?
A: 4.31 µM

Q: What about the TGI (OVCAR-8 ovarian) of the same molecule?
A: > 100 µM

Q: What about the GI50 (OVCAR-4 ovarian) of the same molecule?
A: 6.48 µM

Q: And the TGI (OVCAR-4 ovarian)?
A: > 100 µM

Q: What about the GI50 (K-562 leukemia) of the same molecule?
A: 3.37 µM

Q: And the TGI (K-562 leukemia)?
A: > 100 µM

Q: What about the GI50 (COLO 205 colon) of the same molecule?
A: 3.15 µM

Q: What about the TGI (COLO 205 colon) of the same molecule?
A: 33.2 µM

Q: What about the GI50 (NCI-H226 lung) of the same molecule?
A: 4.58 µM

Q: What about the TGI (NCI-H226 lung) of the same molecule?
A: 78.9 µM

Q: And the GI50 (SN12C renal)?
A: 7.66 µM

Q: And the TGI (SN12C renal)?
A: > 100 µM

Q: What about the GI50 (OVCAR-5 ovarian) of the same molecule?
A: 10.9 µM

Q: And the TGI (OVCAR-5 ovarian)?
A: > 100 µM

Q: What about the GI50 (786-0 renal) of the same molecule?
A: 4.49 µM

Q: What about the TGI (786-0 renal) of the same molecule?
A: > 100 µM

Q: What about the GI50 (HS 578T breast) of the same molecule?
A: 3.06 µM

Q: What about the TGI (HS 578T breast) of the same molecule?
A: 29.7 µM

Q: What about the GI50 (T-47D breast) of the same molecule?
A: 3.33 µM

Q: What about the TGI (T-47D breast) of the same molecule?
A: > 100 µM

Q: What about the GI50 (MOLT-4 leukemia) of the same molecule?
A: 5.16 µM

Q: And the TGI (MOLT-4 leukemia)?
A: > 100 µM

Q: What about the GI50 (CAKI-1 renal) of the same molecule?
A: 2.04 µM

Q: What about the TGI (CAKI-1 renal) of the same molecule?
A: 5.97 µM

Q: What about the GI50 (M14 melanoma) of the same molecule?
A: 2.44 µM

Q: What about the TGI (M14 melanoma) of the same molecule?
A: 6.57 µM

Q: And the GI50 (HCT-116 colon)?
A: 3.8 µM

Q: What about the TGI (HCT-116 colon) of the same molecule?
A: > 100 µM

Q: And the GI50 (KM12 colon)?
A: 4.58 µM

Q: What about the TGI (KM12 colon) of the same molecule?
A: 27 µM

Q: What about the GI50 (UACC-62 melanoma) of the same molecule?
A: 2.4 µM

Q: What about the TGI (UACC-62 melanoma) of the same molecule?
A: 8.56 µM

Q: And the GI50 (OVCAR-3 ovarian)?
A: 5 µM

Q: And the TGI (OVCAR-3 ovarian)?
A: 25.3 µM

Q: And the GI50 (SK-MEL-5 melanoma)?
A: 1.93 µM

Q: What about the TGI (SK-MEL-5 melanoma) of the same molecule?
A: 3.73 µM

Q: And the GI50 (DU-145 prostate)?
A: 10.6 µM

Q: What about the TGI (DU-145 prostate) of the same molecule?
A: > 100 µM

Q: And the GI50 (CCRF-CEM leukemia)?
A: 4.84 µM

Q: What about the TGI (CCRF-CEM leukemia) of the same molecule?
A: > 100 µM

Q: And the GI50 (RPMI-8226 leukemia)?
A: 1.43 µM

Q: And the TGI (RPMI-8226 leukemia)?
A: 7.28 µM

Q: What about the GI50 (HOP-62 NSCLC) of the same molecule?
A: 3.49 µM

Q: What about the TGI (HOP-62 NSCLC) of the same molecule?
A: 52.1 µM

Q: And the GI50 (HL-60(TB) leukemia)?
A: 2.6 µM

Q: And the TGI (HL-60(TB) leukemia)?
A: 7.12 µM

Q: And the GI50 (SK-MEL-2 melanoma)?
A: 4.68 µM

Q: And the TGI (SK-MEL-2 melanoma)?
A: 33.1 µM

Q: And the GI50 (TK-10 renal)?
A: 28.5 µM

Q: What about the TGI (TK-10 renal) of the same molecule?
A: > 100 µM

Q: What about the GI50 (PC-3 prostate) of the same molecule?
A: 3.05 µM

Q: And the TGI (PC-3 prostate)?
A: 31 µM

Q: What about the GI50 (BT-549 breast) of the same molecule?
A: 4.49 µM

Q: And the TGI (BT-549 breast)?
A: 43.7 µM

Q: And the GI50 (NCI-H522 lung)?
A: 4.43 µM

Q: What about the TGI (NCI-H522 lung) of the same molecule?
A: > 100 µM

Q: What about the GI50 (NCI-H23 lung) of the same molecule?
A: 6.04 µM

Q: What about the TGI (NCI-H23 lung) of the same molecule?
A: 27.3 µM

Q: What about the GI50 (A498 renal) of the same molecule?
A: 1.37 µM

Q: And the TGI (A498 renal)?
A: 19.2 µM

Q: And the GI50 (SR leukemia)?
A: 2.02 µM

Q: What about the TGI (SR leukemia) of the same molecule?
A: > 100 µM

Q: And the GI50 (LOX IMVI melanoma)?
A: 1.64 µM

Q: And the TGI (LOX IMVI melanoma)?
A: 3.45 µM
